From patent US9163040B2, “Substituted bisphenyl butanoic phosphonic acid derivatives as NEP inhibitors” (NOVARTIS AG, priority 2013, dated 2015)

How the values were obtained:
[1] = system: Aβ(1-40) peptide concentrations in cerebrospinal fluid; experiment: Aβ model: CSF Aβ after oral dosing, related to plasma ANP increase by exposure-response regression; type: in vivo, rat; conditions: rats, p.o.; for CSF Aβ (% vehicle control): 5 hr post-dosing; for fold higher % increases in CSF Aβ compared with Example 1: plasma ANP 200 to 240% of baseline
Description: The relative CNS and peripheral therapeutic activities of NEP inhibitors were evaluated in two nonclinical animal models. Compounds or their vehicle were administered orally to conscious rats, and either the increase in Aβ(1-40) peptide concentrations in cerebrospinal fluid (CSF; “Aβ model”) or the increase in plasma levels of the NEP substrate, atrial natriuretic peptide (ANP; “ANP potentiation model”) were determined. Thus, NEP inhibitors that elicit no or small increases in CSF Aβ at a given increase in plasma ANP may have an advantage over ones that trigger large elevations in Aβ.
CNS effects of NEP inhibitors were assessed in a different rat model (“Aβ model”). In this study, we have measured cerebrospinal fluid (CSF) levels of Aβ as a sensitive indicator of CNS Aβ concentrations (Kwasi G. Mawuenyega, 2010, Science, Vol 330, 1774)).
Experiments were conducted in naïve adult, male, WH rats purchased from Charles River Labs (body weights: 495±53 g, mean±SD; age: 8.5-12 months) that were housed and fed as described above. Rats were treated by oral gavage with 1 mL/kg of vehicle (0.5% methylcellulose+0.1% Tween 80) or a selected dose of NEP inhibitor between 7:30 and 10:00 am. Five hours later, rats were anesthetized with isoflurane, a laparotomy was performed, and an abdominal aortic blood sample was obtained on EDTA. Blood samples were centrifuged at 4° C. and 20 K g to separate plasma. Plasma samples were aliquoted and frozen (−70° C.) for later analysis of plasma compound levels. After exsanguination of the rat, the skin and muscle overlying the cisterna magna were retracted. A sample of CSF was collected by direct needle puncture through the exposed dura into the cisterna magna. CSF was transferred to pre-chilled (on ice) low-binding tubes (Protein LoBind tubes, 1.5 mL, Order No. 022431081, Eppendorf) using low-binding pipette tips (VWR Catalog #37001-164) as quickly as possible to minimize Aβ aggregation and adherence to the devices. CSF samples were frozen (−70° C.) for later analysis of Aβ levels
Aβ40 in CSF was quantified using the MesoScale Discovery (MSD, Gaithersburg, Md.) 96-well MULTI-ARRAY Human/Rodent (4G8) Aβ40 Ultra-Sensitive Kit (K110FTE-2). The assay was done according to the manufacturer's instructions except for the standard curve and the sample preparation. A-10 μL aliquot of each CSF sample was mixed with 190 μL 1% BSA/1× Tris solution (“Blocker A” from kit) for a 1:20 CSF dilution. Synthetic Aβ1-40 peptide (from kit) was serially diluted in 1% BSA/1× Tris solution to obtain standards from 10,000-10 pg/mL for an 8-point standard curve.
MSD MULTI-SPOT Aβ40 peptide plates from the kit were incubated for 1 hour after pipetting 150 μL/well 1% BSA/1× Tris solution. The plates were washed 3 times with 400 μL 1× Tris wash buffer (from kit) using a BioTek EL406 automated plate washer (Winooski, Vt.). For CSF samples and standards, 25 μL of a 1×SULFO-TAG 4G8 detection antibody/1× “Blocker G”/1% BSA/1× Tris solution (“detection antibody solution” from kit) was pipetted into the plate. CSF samples and standards were pipetted at 25 μL/well into the plates immediately following detection antibody solution additions. The plates were incubated for 2 hours and washed 3 times with 400 μL 1× Tris wash buffer using the EL406 automated plate washer. “Read buffer T” (from kit), 1×150 μL/well, was pipetted into the plates. The MSD plates were read immediately on the MSD SECTOR Imager 6000 reader.
Standards were assayed in triplicate. CSF samples were assayed in duplicate. Curve fitting, back-calculation, % recovery, and interpolation of sample concentrations were performed using MSD DISCOVERY WORKBENCH Data Analysis Tools 3.0 Software. Signal generated by the standards was plotted and fit using the 4-parameter logistical curve fitting option with a 1/y^2 weighting function. Sample pg/mL concentrations were interpolated from the fit curve. […]

[2] = biological target: recombinant human neutral endopeptidase (Homo sapiens (Human), UniProt P08473); experiment: in vitro inhibition of recombinant human neutral endopeptidase (fluorescence lifetime assay); type: biochemical; conditions: 1 hour pre-incubation, read after 1 hour at room temperature, pH 7.4; read-out: Human NEP IC50
Excerpt: The activity of a compound according to the present invention can be assessed by the following in vitro and in vivo methods and/or by the following in vitro and in vivo methods well-described in the art. See Doering K, Meder G, Hinnenberger M, Woelcke J, Mayr L M, Hassiepen U, (2009) “A fluorescence lifetime-based assay for protease inhibitor profiling on human kallikrein 7”, Biomol Screen, January; 14(1):1-9.
In particular, the in vitro inhibition of recombinant human neutral endopeptidase can be determined as follows:
Recombinant human neutral endopeptidase (expressed in insect cells and purified using standard methods, final concentration 7 pM) is pre-incubated with test compounds at various concentrations for 1 hour at room temperature in 10 mM sodium phosphate buffer at pH 7.4, containing 150 mM NaCl and 0.05% (w/v) CHAPS. The enzymatic reaction is started by the addition of a synthetic peptide substrate Cys(PT14)-Arg-Arg-Leu-Trp-OH to a final concentration of 0.7 μM. Substrate hydrolysis leads to an increase in fluorescence lifetime (FLT) of PT14 measured by means of a FLT reader as described by Doering et al. (2009) as referenced supra. The effect of the compound on the enzymatic activity was determined after 1 hour (t=60 min) incubation at room temperature. […]

[3] = at plasma compound concentration corresponding to plasma ANP 200 % baseline
[4] = at plasma compound concentration corresponding to plasma ANP 210 % baseline
[5] = at plasma compound concentration corresponding to plasma ANP 220 % baseline
[6] = at plasma compound concentration corresponding to plasma ANP 230 % baseline
[7] = at plasma compound concentration corresponding to plasma ANP 240 % baseline

recombinant human neutral endopeptidase, sequence (P08473 whole entry): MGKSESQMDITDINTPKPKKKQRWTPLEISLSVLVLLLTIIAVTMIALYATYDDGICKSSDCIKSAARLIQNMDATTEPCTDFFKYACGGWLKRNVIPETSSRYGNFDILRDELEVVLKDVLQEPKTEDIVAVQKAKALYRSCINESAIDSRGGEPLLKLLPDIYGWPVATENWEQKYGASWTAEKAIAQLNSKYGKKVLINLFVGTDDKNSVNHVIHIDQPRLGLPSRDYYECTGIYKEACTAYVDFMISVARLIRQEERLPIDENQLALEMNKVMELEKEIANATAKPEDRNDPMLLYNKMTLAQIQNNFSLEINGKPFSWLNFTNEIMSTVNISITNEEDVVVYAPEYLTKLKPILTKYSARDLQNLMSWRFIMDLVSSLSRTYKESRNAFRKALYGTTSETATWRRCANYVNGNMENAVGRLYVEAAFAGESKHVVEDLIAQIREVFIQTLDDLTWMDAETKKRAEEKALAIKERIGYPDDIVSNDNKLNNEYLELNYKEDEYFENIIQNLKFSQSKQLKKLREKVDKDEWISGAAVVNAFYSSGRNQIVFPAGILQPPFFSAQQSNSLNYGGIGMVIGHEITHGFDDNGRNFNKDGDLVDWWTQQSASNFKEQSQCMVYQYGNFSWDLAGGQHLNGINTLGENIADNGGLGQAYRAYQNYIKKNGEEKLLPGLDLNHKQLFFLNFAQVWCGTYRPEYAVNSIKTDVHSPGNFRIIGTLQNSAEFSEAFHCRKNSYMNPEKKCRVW

| IC50 [2] | SMILES | CSF Aβ (% vehicle control) [1, 3] | CSF Aβ (% vehicle control) [1, 4] | CSF Aβ (% vehicle control) [1, 5] | CSF Aβ (% vehicle control) [1, 6] | CSF Aβ (% vehicle control) [1, 7] | fold higher % increases in CSF Aβ compared with Example 1 [1] |
| --- | --- | --- | --- | --- | --- | --- | --- |
|  | CC(OC(=O)C[C@@H](Cc1ccc(-c2cc(Cl)ccc2F)cc1)NC(=O)CCP(=O)(O)O)OC(=O)OC1CCCCC1 (stereo partly drawn) [Example 1] | 114 % vehicle control | 120 % vehicle control | 126 % vehicle control | 132 % vehicle control | 139 % vehicle control |  |
|  | CCOC(=O)C[C@@H](Cc1ccc(-c2cc(Cl)ccc2F)cc1)NC(=O)CCC(=O)O [Example 1-17 (WO2010/136493)] | 156 % vehicle control | 179 % vehicle control | 202 % vehicle control | 225 % vehicle control | 248 % vehicle control | 4 fold |
| 0.11 nM | O=C(O)C[C@@H](Cc1ccc(-c2cc(Cl)ccc2F)cc1)NC(=O)CCP(=O)(O)O [Example 2, (R)-4-(5′-chloro-2′-fluoro-[1,1′-biphenyl]-4-yl)-3-(3-phosphonopropanamido)butanoic acid] |  |  |  |  |  |  |
|  | CCOC(=O)C[C@@H](Cc1ccc(-c2cccc(Cl)c2)cc1)NC(=O)CCC(=O)O [Example 1-2 (WO2010/136493)] | 225 % vehicle control | 242 % vehicle control | 260 % vehicle control | 211 % vehicle control | 295 % vehicle control | 5- to 9 fold |
